According to patent publication US20240018161A1, “MODULATORS OF CYSTIC FIBROSIS TRANSMEMBRANE CONDUCTANCE REGULATOR” (VERTEX PHARMACEUTICALS INCORPORATED, priority 2020, published 2024):
Read-outs that look alike come from different tables or passages of the source.

Biological target: CFTR-mediated chloride transport in human intestinal epithelial enteroid cells (Homo sapiens, UniProt P13569)
Assay: Membrane potential dye, Enteroid Assay A
Format: cell-based
Details: for EC50: read-out: Ent. A EC50
How it was run: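 Membrane potential dye (20 μM methyl oxonol, with 30 μM CaCCinh-A01 and 30 μM Chicago Sky Blue) loaded 25 min at room temperature into ROCK-inhibitor-seeded human enteroid cells. Chloride-free stimulation buffer triggered transport, followed by 15 min fluorescence. % Activity relative to 3 μM/3 μM/300 nM triple-combination control.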

[1] = enteroid cells incubated with test compound 18-24 hours, acute 10 μM forskolin and 300 nM N-[2,4-bis(1,1-dimethylethyl)-5-hydroxyphenyl]-1,4-dihydro-4-oxoquinoline-3-carboxamide
[2] = percentage of chloride transport of triple combination control (3 μM N-[(6-amino-2-pyridyl)sulfonyl]-6-(3-fluoro-5-isobutoxy-phenyl)-2-[(4S)-2,2,4-trimethylpyrrolidin-1-yl]pyridine-3-carboxamide based)

Chain of CFTR-mediated chloride transport in human intestinal epithelial enteroid cells (P13569 with tags, fused parts or gaps DEL508-508): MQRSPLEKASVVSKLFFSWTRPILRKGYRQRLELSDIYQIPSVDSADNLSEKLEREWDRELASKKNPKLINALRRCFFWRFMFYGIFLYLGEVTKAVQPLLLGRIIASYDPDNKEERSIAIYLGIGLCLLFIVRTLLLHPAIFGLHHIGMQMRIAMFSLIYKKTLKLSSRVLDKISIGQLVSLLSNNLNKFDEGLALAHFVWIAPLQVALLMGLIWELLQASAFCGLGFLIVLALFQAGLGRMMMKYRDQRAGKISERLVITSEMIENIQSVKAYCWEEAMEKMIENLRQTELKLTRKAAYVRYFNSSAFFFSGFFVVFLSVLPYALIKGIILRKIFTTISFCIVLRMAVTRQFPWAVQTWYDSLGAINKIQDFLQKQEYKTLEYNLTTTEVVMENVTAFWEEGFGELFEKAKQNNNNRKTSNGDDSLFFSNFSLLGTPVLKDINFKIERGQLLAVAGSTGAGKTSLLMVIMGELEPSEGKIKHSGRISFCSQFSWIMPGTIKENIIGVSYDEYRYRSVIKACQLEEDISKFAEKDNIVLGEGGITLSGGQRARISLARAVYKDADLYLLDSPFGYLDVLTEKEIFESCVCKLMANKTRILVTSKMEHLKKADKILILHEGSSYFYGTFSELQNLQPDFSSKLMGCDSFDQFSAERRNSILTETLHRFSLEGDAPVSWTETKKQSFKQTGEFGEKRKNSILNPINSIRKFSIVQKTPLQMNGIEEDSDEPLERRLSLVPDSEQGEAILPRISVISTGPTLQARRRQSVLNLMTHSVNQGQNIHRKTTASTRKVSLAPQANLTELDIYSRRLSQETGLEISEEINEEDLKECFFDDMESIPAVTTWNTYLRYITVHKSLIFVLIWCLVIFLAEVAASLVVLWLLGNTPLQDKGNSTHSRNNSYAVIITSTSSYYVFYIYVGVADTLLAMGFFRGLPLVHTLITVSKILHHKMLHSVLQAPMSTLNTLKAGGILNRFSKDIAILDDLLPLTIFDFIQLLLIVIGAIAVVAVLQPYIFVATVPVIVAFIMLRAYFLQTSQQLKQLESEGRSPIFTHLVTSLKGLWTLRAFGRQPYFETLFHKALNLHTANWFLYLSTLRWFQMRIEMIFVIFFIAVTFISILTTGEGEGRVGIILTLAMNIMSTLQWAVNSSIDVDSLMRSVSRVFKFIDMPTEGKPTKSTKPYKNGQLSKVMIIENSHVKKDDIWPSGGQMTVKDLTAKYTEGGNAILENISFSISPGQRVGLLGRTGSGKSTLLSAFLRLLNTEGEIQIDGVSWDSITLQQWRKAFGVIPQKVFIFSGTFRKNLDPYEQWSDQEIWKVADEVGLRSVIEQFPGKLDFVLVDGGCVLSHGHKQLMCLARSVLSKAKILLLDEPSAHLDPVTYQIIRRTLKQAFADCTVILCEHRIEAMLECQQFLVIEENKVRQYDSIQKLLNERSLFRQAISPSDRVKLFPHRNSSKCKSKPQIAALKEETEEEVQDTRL

Compound	EC50 [1] [µM]	Ent. A Max Activity (%) [2]	Ent. A Max Activity (%) (Enteroid Assay A)	EC50 (Enteroid Assay A) [µM]
Cc1cccc(C)c1-c1cc2nc(n1)NS(=O)(=O)c1cccc(c1)C(=O)N1CCN(CC3CCOCC3)C[C@@H]1CO2 [Compound 295]	1 to 3	+++ (+++ is >60%)		
Cc1cccc(C)c1-c1cc2nc(n1)NS(=O)(=O)c1cccc(c1)C(=O)N1CCN(CCCC(C)(C)C)C[C@@H]1CO2 [Compound 296]	< 1	+++ (+++ is >60%)		
Cc1cccc(C)c1-c1cc2nc(n1)NS(=O)(=O)c1cccc(c1)C(=O)N1CCN(CC3CCCCC3)C[C@@H]1CO2 [Compound 297]	< 1	+++ (+++ is >60%)		
Cc1cccc(C)c1-c1cc2nc(n1)NS(=O)(=O)c1cccc(c1)C(=O)N1CCN(CCc3ccccc3)C[C@@H]1CO2 [Compound 299]	< 1	++ (++ is 30-60%)		
Cc1cccc(C)c1-c1cc2nc(n1)NS(=O)(=O)c1cccc(c1)C(=O)N1CCCC1CO2 (stereo not shown) [Compound 301]		+ (+ is <300%)		
Cc1cccc(C)c1-c1cc2nc(n1)NS(=O)(=O)c1cccc(c1)C(=O)N1CCN(C(=O)CCN3CCCC3)C(CO2)C1 (stereo not shown) [Compound 303]		+ (+ is <300%)		
Cc1cccc(C)c1-c1cc2nc(n1)NS(=O)(=O)c1cccc(c1)C(=O)N1CCN(C(=O)CC(C)(C)C)C(CO2)C1 (stereo not shown) [Compound 304]		++ (++ is 30-60%)		
Cc1cccc(C)c1-c1cc2nc(n1)NS(=O)(=O)c1cccc(c1)C(=O)N1CCN(C(=O)CN(C)C)CC1CO2 (stereo not shown) [Compound 305]		+ (+ is <300%)		
Cc1cccc(C)c1-c1cc2nc(n1)NS(=O)(=O)c1cccc(c1)C(=O)N1CCN(C(=O)CCN3CCCC3=O)CC1CO2 (stereo not shown) [Compound 306]		+ (+ is <300%)		
Cc1cccc(C)c1-c1cc2nc(n1)NS(=O)(=O)c1cccc(c1)C(=O)N1CCN(C(=O)CC(C)(C)C)CC1CO2 (stereo not shown) [Compound 307]	3 to 30	++ (++ is 30-60%)		
Cc1cccc(C)c1-c1cc2nc(n1)NS(=O)(=O)c1cccc(c1)C(=O)N1CCN(C(=O)CCN3CCCC3)CC1CO2 (stereo not shown) [Compound 308]		+ (+ is <300%)		
Cc1cccc(C)c1-c1cc2nc(n1)NS(=O)(=O)c1cccc(c1)C(=O)N1CCN(CC3CCCCC3)CC1CO2 (stereo not shown) [Compound 309]	< 1	++ (++ is 30-60%)		
Cc1cccc(C)c1-c1cc2nc(n1)NS(=O)(=O)c1cccc(c1)C(=O)N1CCN(CCC(C)(C)C)CC1CO2 (stereo not shown) [Compound 310]	< 1	++ (++ is 30-60%)		
Cc1cccc(C)c1-c1cc2nc(n1)NS(=O)(=O)c1cccc(c1)C(=O)N1CCN(CCc3ccccc3)CC1CO2 (stereo not shown) [Compound 311]	< 1	++ (++ is 30-60%)		
Cc1cccc(C)c1-c1cc2nc(n1)NS(=O)(=O)c1cccc(c1)C(=O)N1CCN(CC3CCOCC3)CC1CO2 (stereo not shown) [Compound 312]	1 to 3	++ (++ is 30-60%)		
Cc1cccc(C)c1-c1cc2nc(n1)NS(=O)(=O)c1cccc(c1)C(=O)N1CCN(CCCC(C)(C)C)CC1CO2 (stereo not shown) [Compound 313]	< 1	+++ (+++ is >60%)		
Cc1cccc(C)c1-c1cc2nc(n1)NS(=O)(=O)c1cccc(c1)C(=O)N1CCN(CCC3(C(F)(F)F)CC3)C(CO2)C1 (stereo not shown) [Compound 314]	< 1	+++ (+++ is >60%)		
Cc1cccc(C)c1-c1cc2nc(n1)NS(=O)(=O)c1cccc(c1)C(=O)N1CCN(C(=O)OC(C)(C)C)C[C@@H]1CO2 [Compound 315]	< 1	++ (++ is 30-60%)		
Cc1cccc(C)c1-c1cc2nc(n1)NS(=O)(=O)c1cccc(c1)C(=O)N1CCN(C)C(CO2)C1 (stereo not shown) [Compound 316]		+ (+ is <300%)		
Cc1cccc(C)c1-c1cc2nc(n1)NS(=O)(=O)c1cccc(c1)C(=O)N1CCC(c3ccccc3)C(C1)O2 (stereo not shown) [Compound 317]	< 1	+++ (+++ is >60%)		
Cc1cccc(C)c1-c1cc2nc(n1)NS(=O)(=O)c1cccc(c1)C(=O)N1Cc3ccccc3[C@@H](C1)O2 [Compound 318]		+ (+ is <300%)		
Cc1cccc(C)c1-c1cc2nc(n1)NS(=O)(=O)c1cccc(c1)C(=O)N1CC(NC(=O)OC(C)(C)C)CC(C1)O2 (stereo not shown) [Compound 320]	1 to 3	++ (++ is 30-60%)		
Cc1cccc(C)c1-c1cc2nc(n1)NS(=O)(=O)c1cccc(c1)C(=O)N1CC(CC(C(=O)NCCC(C)(C)C)C1)O2 (stereo not shown) [Compound 321]	< 1	++ (++ is 30-60%)		

Compound	EC50 [1] [µM]	Ent. A Max Activity (%) [2]	Ent. A Max Activity (%) (Enteroid Assay A)	EC50 (Enteroid Assay A) [µM]
Cc1cccc(C)c1-c1cc2nc(n1)NS(=O)(=O)c1cccc(c1)C(=O)N1CCN(C(=O)OC(C)(C)C)C(CO2)C1 (stereo not shown) [Compound 322]	< 1	++ (++ is 30-60%)		
Cc1cccc(C)c1-c1cc2nc(n1)NS(=O)(=O)c1cccc(c1)C(=O)N1CC(O2)C(N2CCOCC2)C1 (stereo not shown) [Compound 323]	3 to 30	++ (++ is 30-60%)		
Cc1cccc(C)c1-c1cc2nc(n1)NS(=O)(=O)c1cccc(c1)C(=O)N1CCN(C)CC1CO2 (stereo not shown) [Compound 324]	3 to 30	++ (++ is 30-60%)		
Cc1cccc(C)c1-c1cc2nc(n1)NS(=O)(=O)c1cccc(c1)C(=O)N1Cc3ccccc3C(C1)O2 (stereo not shown) [Compound 325]	< 1	+++ (+++ is >60%)		
Cc1cccc(C)c1-c1cc2nc(n1)NS(=O)(=O)c1cccc(c1)C(=O)N1CCCC(C1)O2 (stereo not shown) [Compound 326]	3 to 30	+ (+ is <300%)		
Cc1cccc(C)c1-c1cc2nc(n1)NS(=O)(=O)c1cccc(c1)NC(=O)[C@@H]1CNCCN1c1cccc(c1)O2 [Compound 334]	1 to 3	+++ (+++ is >60%)		
Cc1cccc(C)c1-c1cc2nc(n1)NS(=O)(=O)c1cccc(c1)C(=O)N1CCC[C@@H](C1)O2 [Compound 335]		+ (+ is <300%)		
Cc1cccc(C)c1-c1cc2nc(n1)NS(=O)(=O)c1cccc(c1)C(=O)N1CCC[C@H](C1)O2 [Compound 336]		+ (+ is <300%)		
CC(C)CCc1ccccc1-c1cc2nc(n1)NS(=O)(=O)c1cccc(c1)C(=O)N1Cc3ccccc3C(C1)O2 (stereo not shown) [Compound 337]	< 1	++ (++ is 30-60%)		
CC(C)Oc1cccc(-c2cc3nc(n2)NS(=O)(=O)c2cccc(c2)C(=O)N2Cc4ccccc4C(C2)O3)c1 (stereo not shown) [Compound 338]		+ (+ is <300%)		
Cc1cccc(C)c1-c1cc2nc(n1)NS(=O)(=O)c1cc(n(C)n1)C(=O)N1Cc3ccccc3[C@H](C1)O2 [Compound 340]	3 to 30	+ (+ is <300%)		
Cc1cccc(C)c1-c1cc2nc(n1)NS(=O)(=O)c1cc(n(C)n1)C(=O)N1Cc3ccccc3[C@H](C1)O2 [Compound 341]	3 to 30	++ (++ is 30-60%)		
Cc1cccc(C)c1-c1cc2nc(n1)NS(=O)(=O)c1cc(ccn1)C(=O)N1Cc3ccccc3C(C1)O2 (stereo not shown) [Compound 343]	1 to 3	++ (++ is 30-60%)		
Cc1cccc(C)c1-c1cc2nc(n1)NS(=O)(=O)c1cccc(c1)CN1CC(COCC(C)(C)C)CC(C1)O2 (stereo not shown) [Compound 344]	< 1	++ (++ is 30-60%)		
Cc1cccc(C)c1-c1cc2nc(n1)NS(=O)(=O)c1cccc(c1)CCC(=O)N1Cc3ccccc3C(C1)O2 (stereo not shown) [Compound 345]		+ (+ is <300%)		
Cc1cccc(C)c1-c1cc2nc(n1)NS(=O)(=O)c1cnn(c1)CCC(=O)N1Cc3ccccc3C(C1)O2 (stereo not shown) [Compound 346]		+ (+ is <300%)		
Cc1cccc(C)c1-c1cc2nc(n1)NS(=O)(=O)c1cnn(c1)CC(=O)N1Cc3ccccc3C(C1)O2 (stereo not shown) [Compound 347]		+ (+ is <300%)		
Cc1cccc(C)c1-c1cc2nc(n1)NS(=O)(=O)c1cc(n(C)c1)CC(=O)N1Cc3ccccc3C(C1)O2 (stereo not shown) [Compound 348]	1 to 3	++ (++ is 30-60%)		
Cc1cccc(C)c1-c1cc2nc(n1)NS(=O)(=O)c1cccc(c1)CCC(=O)N1CCC(CC1)O2 [Compound 352]		+ (+ is <300%)		
Cc1cccc(C)c1-c1cc2nc(n1)NS(=O)(=O)c1cccc(c1)CCC(=O)N1CCCC(C1)O2 (stereo not shown) [Compound 353]		+ (+ is <300%)		
Cc1cccc(C)c1-c1cc2nc(n1)NS(=O)(=O)c1cnn(c1)CC(=O)N1CCCC(C1)O2 (stereo not shown) [Compound 354]		+ (+ is <300%)		
Cc1cccc(C)c1-c1cc2nc(n1)NS(=O)(=O)c1cccc(c1)C(=O)N1CCC(CCCO2)C1 (stereo not shown) [Compound 355]			++ (++ is 30-60%)	3 to 30
